The values that follow come from paper PMC7473865, “Repertoire-scale determination of class II MHC peptide binding via yeast display improves antigen prediction” (Nature Communications, 2020).

Holding throughout (assay type): binding
Experiment [1] has as its target yeast-displayed HLA-DR401 (Homo sapiens, UniProt P01903+P01911, A100K/A169T/D72E/F76Y/I96L/K127E/L162R/M171V/M61L/P40V/Q125Y/R42H/S133A/S149N/S66Y/V115G/V157M/V209L/W38E). Briefly: Yeast-display randomized peptide library selection and deep sequencing, HLA-DR401. The arrangement: key: 1=binder; 0=non-binder.
Experiment [2] deals with T1, recombinant HLA-DR402 (HLA-DRA1*01:01, HLA-DRB1*04:02) (Homo sapiens, UniProt P01903+P01911, A100E/A169T/F76Y/K127E/L162R/M171V/N62H/P40V/Q125Y/Q99D/R42H/S133A/S149N/S66Y/V209L/W38E).
T1 construct: poly-histidine (C); made in house; host or cells: High Five (Hi5) insect cells, baculovirus (pAcGP67a)
Briefly: biochemical.

The target in experiment [3] is T2, recombinant HLA-DR401 (HLA-DRA1*01:01, HLA-DRB1*04:01) (Homo sapiens, UniProt P01903+P01911, A100K/A169T/F76Y/I96L/K127E/L162R/M171V/N62H/P40V/Q125Y/R42H/S133A/S149N/S66Y/V115G/V209L/W38E).
T2 construct: poly-histidine (C); made in house; host or cells: High Five (Hi5) insect cells, baculovirus (pAcGP67a)
Briefly: biochemical.

Setting [4] is: SuppFig8C, yeast-display library peptides.
Where [5] appears, read: HLA-DR402, estimated from two-point fluorescence polarization competition, Fig5F, read-out: Estimated IC50.

Like-named read-outs stand apart in the source and are kept apart here. Ends that are not written are not given here.

As to AAADARCSNRSDLMGGSGGG, the “label (1=binder, 0=non-binder)” value in experiment [1] (Fig6B data set) and in experiment [1] (setting [4]) was 0 throughout.

For the compound AAANWSSSPDMPLVGGSGGG, the “label (1=binder, 0=non-binder)” value in experiment [1] (Fig6B data set) and in experiment [1] (setting [4]) was 0 throughout.

With AAARGALTTQLLAIGGSGGG, the “label (1=binder, 0=non-binder)” value in experiment [1] (setting [4]) is 0.

Take AAAKYRLHVKSGWSGGSGGG: the “label (1=binder, 0=non-binder)” value in experiment [1] (Fig6B data set) stood at 0.

For AAALSTSWLFCSRCGGSGGG, the “label (1=binder, 0=non-binder)” value in experiment [1] (Fig6B data set) and in experiment [1] (setting [4]) was 0 throughout.

Regarding AAAMQRRNPALLLFGGSGGG, the “label (1=binder, 0=non-binder)” value in experiment [1] (Fig6B data set) and in experiment [1] (setting [4]) was 0 each time.

Usually IC50 stands for the concentration needed to halve the response being measured. For ASKIAFKIVSQEPAG, the IC50 in experiment [2] turned out to be 0.0278 µM.

On to ASKMRMATPLLMQAG, for which the IC50 is 5.17 µM in experiment [3] and less than 0.01 µM in experiment [2] (setting [5]).

AAANRRPSLLGWEEG: the IC50 in experiment [2] (setting [5]) and in experiment [2] (read-out: IC50) was less than 0.01 µM in each case.

Consider AATERRPTLMAWEEG, for which the IC50 in experiment [2] (setting [5]) and in experiment [2] (read-out: IC50) was less than 0.01 µM each time.

Consider LGFVFTLTVPSERGL, for which the concentration for half-maximal inhibition (IC50) in experiment [2] (setting [5]) was 0.409 µM.

Take AAACRKRTWLGWEEG: the concentration for half-maximal inhibition (IC50) in experiment [2] (setting [5]) and in experiment [2] (read-out: IC50) was less than 0.01 µM throughout.

With AAVREKCDHVGWEEG, in experiment [2], the IC50 came to 0.0755 µM.

On to AACRKHGSSIGWEEG, for which the IC50 in experiment [2] came to 0.132 µM.

In the case of AAQVDWPTLPMWEEG, the IC50 in experiment [2] was 0.0636 µM.

As for AAVSDRLPLRGWEEG, the IC50 in experiment [2] (setting [5]) and in experiment [2] (read-out: IC50) was less than 0.01 µM throughout.

For `CC[C@H](C)[C@H](NC(=O)[C@@H]1CCCN1C(=O)[C@H](Cc1ccc(O)cc1)NC(=O)[C@H](CCCCN)NC(=O)[C@H](CCSC)NC(=O)[C@H](C)NC(=O)[C@H](CCSC)NC(=O)[C@H](CCSC)NC(=O)[C@H](Cc1c[nH]c2ccccc12)NC(=O)[C@H](CCCCN)NC(=O)[C@H](CCSC)NC(=O)[C@H](CCCNC(=N)N)NC(=O)[C@H](CC(C)C)NC(=O)[C@H](C)NC(=O)[C@@H]1CCCN1)C(=O)O`, the IC50 in experiment [2] (setting [5]) is 1.31 µM.
